US9409905B2, “Antibacterial compounds and methods for use” (PTC THERAPEUTICS, INC., priority 2011, dated 2016)
≈ marks a conversion by molar mass, not a printed value.

Tests used:
[1] = system: Escherichia coli (E. coli) BAS849; test: Antibacterial activity, microbroth dilution MIC (Table 1); assay type: cell-based; settings: microbroth dilution, super sensitive Gram-negative E. coli BAS849, read-out: MIC, BAS849
Method in brief: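 Broth microdilution; endpoint = no macroscopic growth; value = lowest inhibiting concn, μg/mL.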

[2] = system: Staphylococcus aureus (S. aureus) 29213; test: as above; assay type: cell-based; settings: microbroth dilution, Gram-positive S. aureus 29213, read-out: MIC, 29213
Method in brief: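 Lowest concentration stopping macroscopically visible growth under test conditions, by broth microdilution, defines the MIC (μg/mL).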

E. coli 25922 = test: as above; assay type: cell-based, Escherichia coli; settings: Escherichia coli; microbroth dilution; control Gram-negative E. coli 25922 strain; read-out: MIC, 25922
Method in brief: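 Potency is reported as minimum inhibitory concentration in μg/mL, determined by broth microdilution as the lowest level of compound that stops growth visible to the eye.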

E. coli LZ3111 = test: Antibacterial activity, MIC, quinolone resistant strain (Table 2); assay type: cell-based; settings: Escherichia coli, LZ3111, read-out: MIC LZ3111
Method in brief: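 Lowest concentration giving no macroscopically visible growth was taken as the MIC (μg/mL) after microbroth dilution testing.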

[3] = system: Acinetobacter baumannii (A. baumannii) BAA747; test: Antibacterial activity, MIC (Table 4); assay type: cell-based; settings: A. baumannii BAA747, read-out: MIC, BAA747
Method in brief: (§1)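 MIC (μg/mL) by microbroth dilution, taken as the lowest drug concentration preventing macroscopically visible growth. MXX strains are multi-drug resistant clinical isolates.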

[4] = system: Klebsiella pneumoniae (K. pneumoniae) 35657; test: Antibacterial activity, MIC (Table 4); assay type: cell-based; settings: K. pneumoniae 35657, read-out: MIC, 35657
Method in brief: as §1

A. baumannii MXX2240 = test: Antibacterial activity, MIC, resistant strain (Table 4); assay type: cell-based; settings: Acinetobacter baumannii, MXX2240; resistant A. baumannii MMX2240, multi-drug resistant clinical isolate; read-out: MIC, MMX2240
Method in brief: as §1

K. pneumoniae MXX1232 = test: as above; assay type: cell-based; settings: Klebsiella pneumoniae, MXX1232; resistant K. pneumoniae MMX1232, multi-drug resistant clinical isolate; read-out: MIC, MMX1232
Method in brief: as §1

[5] = system: Pseudomonas aeruginosa (P. aeruginosa) 27853; test: Antibacterial activity, MIC (Table 5); assay type: cell-based; settings: P. aeruginosa 27853, read-out: MIC, 27853
Method in brief: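 MIC in μg/mL from broth microdilution; endpoint is the lowest drug level giving no visible growth.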

| SMILES | MIC [1] | MIC [2] | MIC (E. coli 25922) | MIC (E. coli LZ3111) | MIC [3] | MIC [4] | MIC (A. baumannii MXX2240) | MIC (K. pneumoniae MXX1232) | MIC [5] |
| --- | --- | --- | --- | --- | --- | --- | --- | --- | --- |
| CCc1c(-c2ccc3c(ccn3-c3ccccc3)c2)[nH]c(=O)c(C(=O)O)c1O [Cpd 435, 5-ethyl-4-hydroxy-2-oxo-6-(1-phenyl-1H-indol-5-yl)-1,2-dihydropyridine-3-carboxylic acid] | < 1 µg/mL | < 1 µg/mL | 12.5 to 150 µg/mL (≈ 33.4 to 401 µM) | 12.5 to 150 µg/mL (≈ 33.4 to 401 µM) | 12.5 to 150 µg/mL (≈ 33.4 to 401 µM) | 12.5 to 150 µg/mL (≈ 33.4 to 401 µM) | 12.5 to 150 µg/mL (≈ 33.4 to 401 µM) | 12.5 to 150 µg/mL (≈ 33.4 to 401 µM) | 12.5 to 150 µg/mL (≈ 33.4 to 401 µM) |
| CCc1c(-c2ccc3c(ccn3-c3ccccn3)c2)[nH]c(=O)c(C(=O)O)c1O [Cpd 436, 5-ethyl-4-hydroxy-2-oxo-6-(1-(pyridin-2-yl)-1H-indol-5-yl)-1,2-dihydropyridine-3-carboxylic acid] | < 1 µg/mL | 1 to 3.5 µg/mL (≈ 2.66 to 9.32 µM) | 12.5 to 150 µg/mL (≈ 33.3 to 400 µM) | 12.5 to 150 µg/mL (≈ 33.3 to 400 µM) | 12.5 to 150 µg/mL (≈ 33.3 to 400 µM) | 12.5 to 150 µg/mL (≈ 33.3 to 400 µM) | 12.5 to 150 µg/mL (≈ 33.3 to 400 µM) | 12.5 to 150 µg/mL (≈ 33.3 to 400 µM) | 12.5 to 150 µg/mL (≈ 33.3 to 400 µM) |
| CCc1c(-c2ccc3c(ccn3-c3ccc(C(F)(F)F)cc3)c2)[nH]c(=O)c(C(=O)O)c1O [Cpd 437, 5-ethyl-4-hydroxy-2-oxo-6-(1-(4-(trifluoromethyl)phenyl)-1H-indol-5-yl)-1,2-dihydropyridine-3-carboxylic acid] | < 1 µg/mL | 3.5 to 12.5 µg/mL (≈ 7.91 to 28.3 µM) | 12.5 to 150 µg/mL (≈ 28.3 to 339 µM) | 12.5 to 150 µg/mL (≈ 28.3 to 339 µM) | 12.5 to 150 µg/mL (≈ 28.3 to 339 µM) | 12.5 to 150 µg/mL (≈ 28.3 to 339 µM) | 12.5 to 150 µg/mL (≈ 28.3 to 339 µM) | 12.5 to 150 µg/mL (≈ 28.3 to 339 µM) | 12.5 to 150 µg/mL (≈ 28.3 to 339 µM) |
| CCc1c(-c2ccc3c(ccn3-c3ccc(F)cc3)c2)[nH]c(=O)c(C(=O)O)c1O [Cpd 438, 5-ethyl-6-(1-(4-fluorophenyl)-1H-indol-5-yl)-4-hydroxy-2-oxo-1,2-dihydropyridine-3-carboxylic acid] | < 1 µg/mL | < 1 µg/mL | 12.5 to 150 µg/mL (≈ 31.9 to 382 µM) | 12.5 to 150 µg/mL (≈ 31.9 to 382 µM) | 12.5 to 150 µg/mL (≈ 31.9 to 382 µM) | 12.5 to 150 µg/mL (≈ 31.9 to 382 µM) | 12.5 to 150 µg/mL (≈ 31.9 to 382 µM) | 12.5 to 150 µg/mL (≈ 31.9 to 382 µM) | 12.5 to 150 µg/mL (≈ 31.9 to 382 µM) |
| CCc1c(-c2ccc3c(ccn3-c3cccc(N4CCCC4)c3)c2)[nH]c(=O)c(C(=O)O)c1O [Cpd 439, 5-ethyl-4-hydroxy-2-oxo-6-(1-(3-(pyrrolidin-1-yl)phenyl)-1H-indol-5-yl)-1,2-dihydropyridine-3-carboxylic acid] | 1 to 3.5 µg/mL (≈ 2.25 to 7.89 µM) | 3.5 to 12.5 µg/mL (≈ 7.89 to 28.2 µM) | 12.5 to 150 µg/mL (≈ 28.2 to 338 µM) | 12.5 to 150 µg/mL (≈ 28.2 to 338 µM) | 12.5 to 150 µg/mL (≈ 28.2 to 338 µM) | 12.5 to 150 µg/mL (≈ 28.2 to 338 µM) | 12.5 to 150 µg/mL (≈ 28.2 to 338 µM) | 12.5 to 150 µg/mL (≈ 28.2 to 338 µM) | 12.5 to 150 µg/mL (≈ 28.2 to 338 µM) |
| CCc1c(-c2ccc3c(ccn3-c3ccc(N4CCCC4)cc3)c2)[nH]c(=O)c(C(=O)O)c1O [Cpd 440, 5-ethyl-4-hydroxy-2-oxo-6-(1-(4-(pyrrolidin-1-yl)phenyl)-1H-indol-5-yl)-1,2-dihydropyridine-3-carboxylic acid] | 12.5 to 150 µg/mL (≈ 28.2 to 338 µM) | 12.5 to 150 µg/mL (≈ 28.2 to 338 µM) | 12.5 to 150 µg/mL (≈ 28.2 to 338 µM) | 12.5 to 150 µg/mL (≈ 28.2 to 338 µM) | 12.5 to 150 µg/mL (≈ 28.2 to 338 µM) | 12.5 to 150 µg/mL (≈ 28.2 to 338 µM) | 12.5 to 150 µg/mL (≈ 28.2 to 338 µM) | 12.5 to 150 µg/mL (≈ 28.2 to 338 µM) | 12.5 to 150 µg/mL (≈ 28.2 to 338 µM) |
| CCc1c(-c2ccc3cc(CN(C)C)[nH]c3c2)[nH]c(=O)c(C(=O)O)c1O.Cl [Cpd 441, 6-(2-((dimethylamino)methyl)-1H-indol-6-yl)-5-ethyl-4-hydroxy-2-oxo-1,2-dihydropyridine-3-carboxylic acid hydrochloride] | < 1 µg/mL | 1 to 3.5 µg/mL | < 1 µg/mL | 12.5 to 150 µg/mL | 1 to 3.5 µg/mL | < 1 µg/mL | 3.5 to 12.5 µg/mL | 12.5 to 150 µg/mL | 12.5 to 150 µg/mL |
| CCNCc1cc2ccc(-c3[nH]c(=O)c(C(=O)O)c(O)c3CC)cc2[nH]1.Cl [Cpd 442, 5-ethyl-6-(2-((ethylamino)methyl)-1H-indol-6-yl)-4-hydroxy-2-oxo-1,2-dihydropyridine-3-carboxylic acid hydrochloride] | 1 to 3.5 µg/mL | 12.5 to 150 µg/mL | 3.5 to 12.5 µg/mL | 12.5 to 150 µg/mL | 12.5 to 150 µg/mL | 3.5 to 12.5 µg/mL | 12.5 to 150 µg/mL | 12.5 to 150 µg/mL | 12.5 to 150 µg/mL |
